Measured values from patent EP1202975B1, “SUBSTITUTED POLYCYCLIC ARYL AND HETEROARYL PYRAZINONES USEFUL FOR SELECTIVE INHIBITION OF THE COAGULATION CASCADE” (Pharmacia Corporation, priority 1999, dated 2000).
Where two headings read alike, the source gives them in different places.

What was measured:
TF-VIIa = target: T1, TF-VIIa (Homo sapiens, UniProt P08709); assay: TF-VIIa Assay; type: biochemical
T1 construct: 2nM recombinant human factor VIIa; purchased American Diagnostica, Greenwich CT; host or cells: soluble TF made in house in E. coli

Human factor Xa = Human factor Xa (Homo sapiens, UniProt P00742)
[1] = read-out: IC50 or % Inhibition TF-VIIa (30 µM); cells given as a plain number (IC50)
[2] = cells given as a plain number (IC50); read-out: IC50 or % Inhibition TF-VIIa (30 µM)
[3] = read-out: IC50 or % Inhibition TF-VIIa (30 µM); cells without % sign: IC50
[4] = cells without % sign: IC50; read-out: IC50 or % Inhibition TF-VIIa (30 µM)

T1 sequence (P08709 213-466 limits assumed): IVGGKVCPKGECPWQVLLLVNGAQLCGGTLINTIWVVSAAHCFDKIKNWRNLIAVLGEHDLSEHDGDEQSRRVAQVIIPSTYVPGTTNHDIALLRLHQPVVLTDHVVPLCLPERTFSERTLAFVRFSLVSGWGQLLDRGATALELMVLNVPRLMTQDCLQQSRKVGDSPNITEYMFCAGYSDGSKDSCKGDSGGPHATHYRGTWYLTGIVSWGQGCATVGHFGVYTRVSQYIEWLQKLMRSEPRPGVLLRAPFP
T1 sequence (P08709 61-212 limits assumed): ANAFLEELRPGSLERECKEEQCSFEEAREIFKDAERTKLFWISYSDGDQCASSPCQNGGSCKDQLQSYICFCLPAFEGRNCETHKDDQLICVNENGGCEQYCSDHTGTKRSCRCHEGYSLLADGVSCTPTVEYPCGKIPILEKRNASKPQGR
T1 sequence (P13726 33-251 partner limits assumed): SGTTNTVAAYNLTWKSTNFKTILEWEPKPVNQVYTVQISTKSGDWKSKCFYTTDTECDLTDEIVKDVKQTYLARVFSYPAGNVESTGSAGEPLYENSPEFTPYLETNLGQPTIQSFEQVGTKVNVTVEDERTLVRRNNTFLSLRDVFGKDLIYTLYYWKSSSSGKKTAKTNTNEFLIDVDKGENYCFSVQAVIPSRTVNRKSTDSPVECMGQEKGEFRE
Human factor Xa, sequence (P00742 235-488 limits assumed): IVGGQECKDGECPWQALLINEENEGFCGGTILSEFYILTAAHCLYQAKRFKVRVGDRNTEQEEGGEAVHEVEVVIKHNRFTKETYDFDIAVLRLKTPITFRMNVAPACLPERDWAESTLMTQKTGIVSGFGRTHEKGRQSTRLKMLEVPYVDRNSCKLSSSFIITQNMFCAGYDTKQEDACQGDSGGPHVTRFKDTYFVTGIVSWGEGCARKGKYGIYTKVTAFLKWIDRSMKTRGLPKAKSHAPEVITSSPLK
Human factor Xa, sequence (P00742 41-179 limits assumed): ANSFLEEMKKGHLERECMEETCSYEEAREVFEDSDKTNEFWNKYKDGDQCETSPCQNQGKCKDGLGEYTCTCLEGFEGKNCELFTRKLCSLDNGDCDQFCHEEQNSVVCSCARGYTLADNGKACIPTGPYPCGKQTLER

SMILES | IC50 or % Inhibition Factor Xa (30 µM) (Human factor Xa) [%] | IC50 (TF-VIIa; [3]) [nM] | also measured
N=C(N)c1ccc(CNC(=O)Cn2c(-c3ccsc3)c(Cl)nc(NCCc3cccc(Cl)c3)c2=O)cc1 [1517-19] | 0 | – | IC50 (TF-VIIa; [1]): 900 nM
N=C(N)c1ccc(CNC(=O)C(Cc2ccccc2)n2c(-c3ccccc3)c(Cl)nc(NCCc3cccc(Cl)c3)c2=O)cc1 (stereo not drawn) [1517-20] | 0 | – | IC50 or % Inhibition TF-VIIa (30 µM) (TF-VIIa): 22%
C[C@H](C(=O)NCc1ccc(C(=N)N)cc1)n1c(-c2ccccc2)c(Cl)nc(NCCc2cccc(Cl)c2)c1=O [1517-23] | 0 | – | IC50 (TF-VIIa; [1]): 2300 nM
N=C(N)c1ccc(CNC(=O)Cn2c(-c3c(Cl)cccc3Cl)c(Cl)nc(NCCc3cccc(Cl)c3)c2=O)cc1 [1517-24] | 0 | – | IC50 (TF-VIIa; [1]): 1800 nM
N=C(N)c1ccc(CNC(=O)Cn2c(-c3ccccc3)c(Cl)nc(NC3CCCCC3)c2=O)cc1 [1517-25] | 0 | – | IC50 (TF-VIIa; [2]): 1400 nM
CCCC(CCC)Nc1nc(Cl)c(-c2ccccc2)n(CC(=O)NCc2ccc(C(=N)N)cc2)c1=O [1517-26] | 0 | – | IC50 (TF-VIIa; [2]): 1800 nM
CC(C)N(C)c1nc(Cl)c(-c2ccccc2)n(CC(=O)NCc2ccc(C(=N)N)cc2)c1=O [1517-31] | 0 | – | IC50 (TF-VIIa; [2]): 9100 nM
CCCNc1nc(Cl)c(-c2ccccc2)n(CC(=O)NCc2ccc(C(=N)N)cc2)c1=O [1517-33] | 0 | – | IC50 (TF-VIIa; [2]): 400 nM
C[Si](C)(C)CNc1nc(Cl)c(-c2ccccc2)n(CC(=O)NCc2ccc(C(=N)N)cc2)c1=O [1517-36] | 0 | – | IC50 (TF-VIIa; [1]): 3000 nM
N=C(N)c1ccc(CNC(=O)Cn2c(-c3ccccc3)c(Cl)nc(NCC3CC3)c2=O)cc1 [1517-43] | 0 | – | IC50 or % Inhibition TF-VIIa (30 µM) (TF-VIIa): 25%
CCCCCNc1nc(Cl)c(-c2ccccc2)n(CC(=O)NCc2ccc(C(=N)N)cc2)c1=O [1517-48] | 0 | – | IC50 (TF-VIIa; [1]): 1200 nM
N=C(N)c1ccc(CNC(=O)Cn2c(-c3cccc(N)c3)c(Cl)nc(NCCN3CCCC3)c2=O)cc1 [1543-03] | 34 | 640 | –
CNc1nc(Cl)c(-c2cccc(N)c2)n(CC(=O)NCc2ccc(C(=N)N)cc2)c1=O [1543-05] | 14 | – | IC50 (TF-VIIa; [4]): 60 nM
N=C(N)c1ccc(CNC(=O)Cn2c(-c3cccc(N)c3)c(Cl)nc(NCCCn3ccnc3)c2=O)cc1 [1543-07] | 19 | 210 | –
CN(C)CCNc1nc(Cl)c(-c2cccc(N)c2)n(CC(=O)NCc2ccc(C(=N)N)cc2)c1=O [1543-09] | 12 | – | IC50 (TF-VIIa; [4]): 690 nM
N=C(N)c1ccc(CNC(=O)Cn2c(-c3cccc(N)c3)c(Cl)nc(NCCCO)c2=O)cc1 [1543-13] | 12 | – | IC50 (TF-VIIa; [4]): 90 nM

The next lines start with results.

IC50 or % Inhibition Factor Xa (30 µM) (Human factor Xa) [%] | IC50 (TF-VIIa; [3]) [nM] | SMILES | also measured
41 | 950 | N=C(N)c1ccc(CNC(=O)Cn2c(-c3cccc(N)c3)c(Cl)nc(NCCN3CCCCC3)c2=O)cc1 [1543-15] | –
11 | 220 | CC(CNc1nc(Cl)c(-c2cccc(N)c2)n(CC(=O)NCc2ccc(C(=N)N)cc2)c1=O)N(C)C (stereo not drawn) [1543-19] | –
27 | 290 | N=C(N)c1ccc(CNC(=O)Cn2c(-c3cccc(N)c3)c(Cl)nc(NCCCCN3CCCC3)c2=O)cc1 [1543-21] | –
27 | 380 | N=C(N)c1ccc(CNC(=O)Cn2c(-c3cccc(N)c3)c(Cl)nc(NCCCN3CCCC3)c2=O)cc1 [1543-27] | –
8 | 40 | CCNc1nc(Cl)c(-c2cccc(N)c2)n(CC(=O)NCc2ccc(C(=N)N)cc2F)c1=O [1543-31] | –
14 | 30 | N=C(N)c1ccc(CNC(=O)Cn2c(-c3cccc(N)c3)c(Cl)nc(NC3CC3)c2=O)c(F)c1 [1543-33] | –
20 | 80 | N=C(N)c1ccc(CNC(=O)Cn2c(-c3cccc(N)c3)c(Cl)nc(NC3CCCC3)c2=O)c(F)c1 [1543-34] | –
8 | 70 | CCCNc1nc(Cl)c(-c2cccc(N)c2)n(CC(=O)NCc2ccc(C(=N)N)cc2F)c1=O [1543-35] | –
15 | 80 | CCCCNc1nc(Cl)c(-c2cccc(N)c2)n(CC(=O)NCc2ccc(C(=N)N)cc2F)c1=O [1543-36] | –
14 | 90 | CC(C)CNc1nc(Cl)c(-c2cccc(N)c2)n(CC(=O)NCc2ccc(C(=N)N)cc2F)c1=O [1543-38] | –
10 | 40 | CC(C)Nc1nc(Cl)c(-c2cccc(N)c2)n(CC(=O)NCc2ccc(C(=N)N)cc2F)c1=O [1543-40] | –
